Test results from patent US10576085B2, “Substituted aminopurine compounds, compositions thereof, and methods of treatment therewith” (Signal Pharmaceuticals, LLC, priority 2016, dated 2020).

Tested on: cancer cell lines of Table 2
Test: Multiplexed cytotoxicity assay: apoptosis (activated caspase-3; Cal_X2, Cal_X5, Max_Fold_Change)
Format: cell-based
Protocol: Cells are grown in RPMI1640, 10% FBS, 2 mM L-alanyl-L-Glutamine, 1 mM Na pyruvate or a special medium in a humidified atmosphere of 5% CO2 at 37° C. Cells are seeded into 384-well plates and incubated in a humidified atmosphere of 5% CO2 at 37° C. Compounds are added 24 h post cell seeding. At the same time, a time zero untreated cell plate is generated. After a 72 hour incubation period, cells are fixed and stained with fluorescently labeled antibodies and nuclear dye to allow visualization of nuclei, apoptotic cells and mitotic cells. Apoptotic cells are detected using an anti-active caspase-3 antibody. Mitotic cells are detected using an anti phospho-histone-3 antibody. Compounds are serially diluted 3.16-fold and assayed over 10 concentrations in a final assay concentration of 0.1% DMSO from the highest test concentration of 10 μM. Automated fluorescence microscopy was carried out using a Molecular Devices ImageXpress Micro XL high-content imager, and images are collected with a 4× objective.
The activated caspase-3 marker labels cells from early to late stage apoptosis. Concentrations of test compound that cause a 5-fold induction in the caspase-3 signal (Cal_X5) indicate significant apoptosis induction. The maximal induction of caspase 3 by compound in comparison with DMSO control is reported as Max_Fold_Change.
In Another Experiment, Cells were Grown in RPMI1640, 10% FBS, 2 mM L-alanyl-L-Glutamine, 1 mM Na pyruvate or a special medium in a humidified atmosphere of 5% CO2 at 37° C. Cells were seeded into 384-well plates and incubated in a humidified atmosphere of 5% CO2 at 37° C. Compounds were added 24 h post cell seeding. At the same time, a time zero untreated cell plate was generated. After a 72 hour incubation period, cells were fixed and stained with fluorescently labeled antibodies and nuclear dye to allow visualization of nuclei, apoptotic cells and mitotic cells. Apoptotic cells were detected using an anti-active caspase-3 antibody. Mitotic cells were detected using an anti phospho-histone-3 antibody. Compounds were serially diluted 3.16-fold and assayed over 10 concentrations in a final assay concentration of 0.1% DMSO from the highest test concentration of 10 μM. Automated fluorescence microscopy was carried out using a Molecular Devices ImageXpress Micro XL high-content imager, and images were collected with a 4× objective.
The activated caspase-3 marker labels cells from early to late stage apoptosis. Concentrations of test compound that cause a 2-fold (Cal-X2) or 5-fold induction in the caspase-3 signal (Cal_X5) indicated significant apoptosis induction. The maximal induction of caspase 3 by compound in comparison with DMSO control was reported as Max_Fold_Change.

## C[C@]1(C(N)=O)CC[C@@H](n2c(Nc3c(Cl)cc(Cl)cc3Cl)nc3cnc(N[C@@H]4CCOC[C@H]4F)nc32)CC1 [Compound 1, cis-4-[2-{[(3S,4R)-3-fluorooxan-4-yl]amino}-8-(2,4,6-trichloroanilino)-9H-purin-9-yl]-1-methyl cyclohexane-1-carboxamide]
HS611T, Lymphoma
  CalX2: 2.8507 µM
  CalX5: 10 µM
  Max fold change: 3.84
HS688AT, Skin, Melanoma
  CalX2: 10 µM
  CalX5: 10 µM
  Max fold change: 1.61
HS695T, Skin, Melanoma
  CalX2: 0.0253 µM
  CalX5: 0.0727 µM
  Max fold change: 22.05
HS852T, Skin, Melanoma
  CalX2: 0.05 µM
  CalX5: 0.234 µM
  Max fold change: 6.51
HT1197, Bladder
  CalX2: 0.1601 µM
  CalX5: 10 µM
  Max fold change: 4.16
HT1376, Bladder
  CalX2: 0.0524 µM
  CalX5: 0.167 µM
  Max fold change: 10.87
HT, Lymphoma
  CalX2: 8.6354 µM
  CalX5: 10 µM
  Max fold change: 2.44
HUCCT1, Liver
  CalX2: 0.0222 µM
  CalX5: 0.0406 µM
  Max fold change: 11.54
HUH6CLONE5, Liver
  CalX2: 0.0631 µM
  CalX5: 0.302 µM
  Max fold change: 8.25
J82, Bladder
  CalX2: 2.4365 µM
  CalX5: 10 µM
  Max fold change: 3.17
JEKO1, Lymphoma
  CalX2: 4.3369 µM
  CalX5: 10 µM
  Max fold change: 3.11
JIYOYE, Lymphoma
  CalX2: 4.4004 µM
  CalX5: 5.35 µM
  Max fold change: 11.1
JRT3T35, Leukemia
  CalX2: 2.6364 µM
  CalX5: 3.8 µM
  Max fold change: 14.26
JURKAT, Leukemia
  CalX2: 1.6173 µM
  CalX5: 3.28 µM
  Max fold change: 14.48
K562, Leukemia
  CalX2: 2.9298 µM
  CalX5: 4.86 µM
  Max fold change: 51.89
KG1, Leukemia
  CalX2: 2.5811 µM
  CalX5: 10 µM
  Max fold change: 2.5
KU812, Leukemia
  CalX2: 0.03 µM
  CalX5: 8.02 µM
  Max fold change: 5.63
L428, Lymphoma
  CalX2: 4.2384 µM
  CalX5: 5.88 µM
  Max fold change: 7.51
MC116, Lymphoma
  CalX2: 2.8763 µM
  CalX5: 5.18 µM
  Max fold change: 9.46
MEG01, Leukemia
  CalX2: 0.5718 µM
  CalX5: 10 µM
  Max fold change: 2.77
MHHPREB1, Leukemia
  CalX2: 5.1142 µM
  CalX5: 7.66 µM
  Max fold change: 11.43
MOLT3, Leukemia
  CalX2: 5.88 µM
  CalX5: 10 µM
  Max fold change: 3.63
MOLT16, Leukemia
  CalX2: 2.4102 µM
  CalX5: 4.97 µM
  Max fold change: 8.06
MV411, Leukemia
  CalX2: 0.0933 µM
  CalX5: 1.15 µM
  Max fold change: 8.12
MX1, Leukemia
  CalX2: 1.1016 µM
  CalX5: 10 µM
  Max fold change: 3.78
NALM6, Leukemia
  CalX2: 0.1241 µM
  CalX5: 10 µM
  Max fold change: 5
NAMALWA, Lymphoma
  CalX2: 5.9431 µM
  CalX5: 10 µM
  Max fold change: 2.68
OCUG1, Liver
  CalX2: 0.0848 µM
  CalX5: 0.49 µM
  Max fold change: 5.49
RAJI, Lymphoma
  CalX2: 2.5564 µM
  CalX5: 4.07 µM
  Max fold change: 24.81
RAMOSRA1, Lymphoma
  CalX2: 4.5496 µM
  CalX5: 7.39 µM
  Max fold change: 25.1
REC1, Lymphoma
  CalX2: 10 µM
  CalX5: 10 µM
  Max fold change: 1.86
RPMI6666, Lymphoma
  CalX2: 3.0419 µM
  CalX5: 4.37 µM
  Max fold change: 26.35
RS411, Leukemia
  CalX2: 3.8025 µM
  CalX5: 8.4 µM
  Max fold change: 5.83
SCABER, Bladder
  CalX2: 0.0086 µM
  CalX5: 0.0506 µM
  Max fold change: 29.47
SCC9, Head and Neck
  CalX2: 0.6679 µM
  CalX5: 3.86 µM
  Max fold change: 9.58
SKNEP1, Kidney
  CalX2: 10 µM
  CalX5: 10 µM
  Max fold change: 1.15
SNU423, Liver
  CalX2: 0.0909 µM
  CalX5: 1.65 µM
  Max fold change: 7.32
SR, Lymphoma
  CalX2: 1.2842 µM
  CalX5: 3.07 µM
  Max fold change: 33.52
ST486, Lymphoma
  CalX2: 4.2422 µM
  CalX5: 6.11 µM
  Max fold change: 10.85
SUDHL4, Lymphoma
  CalX2: 2.5668 µM
  CalX5: 4.83 µM
  Max fold change: 10.75
SUDHL5, Lymphoma
  CalX2: 1.6359 µM
  CalX5: 4.54 µM
  Max fold change: 10.37
SUDHL8, Lymphoma
  CalX2: 1.2344 µM
  CalX5: 4.19 µM
  Max fold change: 10.79
SUDHL10, Lymphoma
  CalX2: 3.611 µM
  CalX5: 4.87 µM
  Max fold change: 11.63
SUPT1, Lymphoma
  CalX2: 4.5476 µM
  CalX5: 9.21 µM
  Max fold change: 5.76
T24, Bladder
  CalX2: 4.5443 µM
  CalX5: 10 µM
  Max fold change: 2.61
TCCSUP, Bladder
  CalX2: 5.6435 µM
  CalX5: 10 µM
  Max fold change: 3.67
TF1, Leukemia
  CalX2: 0.006 µM
  CalX5: 0.0296 µM
  Max fold change: 16.1
THP1, Leukemia
  CalX2: 0.132 µM
  CalX5: 3.9 µM
  Max fold change: 6.3
TUR, Lymphoma
  CalX2: 0.6984 µM
  CalX5: 3.45 µM
  Max fold change: 17.35
UMUC3, Bladder
  CalX2: 2.7934 µM
  CalX5: 5.76 µM
  Max fold change: 6.56
Variety of cancer cell lines
  Induction of apoptosis: induce apoptosis
